# Patent US8163728B2, “Pyrazoles” (Hoffmann-La Roche Inc., priority 2009, dated 2012)
# pKi: −log10 of the molar value.
# Biological target: T1, GABA A α5 (Homo sapiens, UniProt P18507+P31644)
# T1 construct: expressed in transfected cells; host or cells: HEK293 cells, transiently transfected; membranes prepared from cell pellets
# Test: [3H]flumazenil competition binding, human GABA A α5β3γ2 receptors in HEK293 cell membranes
# Conditions: human receptor α5β3γ2 transiently transfected in HEK293; 0.5 nM [3H]flumazenil; 1 hour at 4° C.; means of two determinations; read-out: hKi GABA A α5
# Description: The affinity of compounds at GABA A receptor subtypes was measured by competition for [3H]flumazenil (85 Ci/mmol; Roche) binding to HEK293 cells expressing rat (stably transfected) or human (transiently transfected) receptors of composition α1β3γ2, α2β3γ2, α3β3γ2 and α5β3γ2.
# Cell pellets were suspended in Krebs-tris buffer (4.8 mM KCl, 1.2 mM CaCl2, 1.2 mM MgCl2, 120 mM NaCl, 15 mM Tris; pH 7.5; binding assay buffer), homogenized by polytron for ca. 20 sec on ice and centrifuged for 60 min at 4° C. (50000 g; Sorvall, rotor: SM24=20000 rpm). The cell pellets were re-suspended in Krebs-tris buffer and homogenized by polytron for ca. 15 sec on ice. Protein was measured (Bradford method, Bio-Rad) and aliquots of 1 mL were prepared and stored at −80° C.
# Assays were incubated to equilibrium for 1 hour at 4° C. and harvested onto GF/C uni-filters (Packard) by filtration using a Packard harvester and washing with ice-cold wash buffer (50 mM Tris; pH 7.5). After drying, filter-retained radioactivity was detected by liquid scintillation counting. Ki values were calculated using Excel-Fit (Microsoft) and are the means of two determinations.
row,pKi,SMILES
1,8.74,"Cc1onc(-c2ccc(F)cc2)c1COc1cc(C(=O)NN2CCOCC2)[nH]n1 [Example 8, 5-[3-(4-Fluoro-phenyl)-5-methyl-isoxazol-4-ylmethoxy]-2H-pyrazole-3-carboxylic acid morpholin-4-ylamide]"
2,8.92,"Cc1onc(-c2ccc(F)cn2)c1COc1cc(C(=O)NC2CCOC2)[nH]n1 (racemic) [Example 18, Rac-5-[3-(5-Fluoro-pyridin-2-yl)-5-methyl-isoxazol-4-ylmethoxy]-2H-pyrazole-3-carboxylic acid (tetrahydro-furan-3-yl)-amide]"
3,7.88,"COCCNC(=O)c1cc(OCc2c(-c3ccc(F)cc3)noc2C)nn1C [Example 60, 5-[3-(4-Fluoro-phenyl)-5-methyl-isoxazol-4-ylmethoxy]-2-methyl-2H-pyrazole-3-carboxylic acid (2-methoxy-ethyl)-amide]"
4,7.27,"CCCCc1noc(C)c1COc1cc(C(=O)N2CCOCC2)[nH]n1 [Example 36, [5-(3-Butyl-5-methyl-isoxazol-4-ylmethoxy)-2H-pyrazol-3-yl]morpholin-4-yl-methanone]"
5,7.95,"Cc1onc(-c2ccccn2)c1COc1cc(C(=O)N[C@@H](C)CO)n[nH]1 [Example 16, 5-(5-Methyl-3-pyridin-2-yl-isoxazol-4-ylmethoxy)-1H-pyrazole-3-carboxylic acid ((S)-2-hydroxy-1-methyl-ethyl)-amide]"
6,8.42,"Cc1onc(-c2ccc(F)cc2)c1/C=C/c1cc(C(=O)NCC(C)(C)O)[nH]n1 [Example 140, 5-{(E)-2-[3-(4-Fluoro-phenyl)-5-methyl-isoxazol-4-yl]vinyl}-2H-pyrazole-3-carboxylic acid (2-hydroxy-2-methyl-propyl)-amide]"
7,8.92,"Cc1onc(-c2ccc(F)cc2)c1COc1cc(C(=O)NC2CCOCC2)n(C)n1 [Example 53, 5-[3-(4-Fluoro-phenyl)-5-methyl-isoxazol-4-ylmethoxy]-2-methyl-2H-pyrazole-3-carboxylic acid (tetrahydro-pyran-4-yl)-amide]"
8,8.29,"Cc1onc(-c2ccccc2)c1/C=C/c1cc(C(=O)NC(C)C)[nH]n1 [Example 118, 5-[(E)-2-(5-Methyl-3-phenyl-isoxazol-4-yl)-vinyl]-2H-pyrazole-3-carboxylic acid iso-propylamide]"

# The remaining lines, values behind:
row,SMILES,pKi
1,"Cc1onc(-c2ccccn2)c1CNc1cc(C(=O)NC(C)C)n(C)n1 [Example 159, N-isopropyl-1-methyl-3-((5-methyl-3-(pyridin-2-yl)isoxazol-4-yl)methylamino)-1H-pyrazole-5-carboxamide]",7.40
2,"Cc1onc(C2CCOCC2)c1COc1cc(C(=O)NC2CCOCC2)n(C)n1 [Example 90, 2-Methyl-5-[5-methyl-3-(tetrahydro-pyran-4-yl)-isoxazol-4-ylmethoxy]-2H-pyrazole-3-carboxylic acid (tetrahydro-pyran-4-yl)-amide]",7.61
3,"Cc1onc(-c2ccc(F)cn2)c1COc1cc(C(=O)NN2CCCC2)[nH]n1 [Example 24, 5-[3-(5-Fluoro-pyridin-2-yl)-5-methyl-isoxazol-4-ylmethoxy]-2H-pyrazole-3-carboxylic acid pyrrolidin-1-ylamide]",8.46
4,"Cn1nc(OCc2c(-c3ccc(F)cc3)noc2CO)cc1C(=O)NCC(F)(F)C(F)(F)F [Example 95, 5-[3-(4-Fluoro-phenyl)-5-hydroxymethyl-isoxazol-4-ylmethoxy]-2-methyl-2H-pyrazole-3-carboxylic acid (2,2,3,3,3-pentafluoro-propyl)-amide]",8.10
5,"Cc1onc(-c2ccc(F)cc2)c1/C=C/c1cc(C(=O)N2CCS(=O)(=O)CC2)n(C)n1 [Example 127, (1,1-Dioxo-1,6-thiomorpholin-4-yl)-(5-{(E)-2-[3-(4-fluoro-phenyl)-5-methyl-isoxazol-4-yl]-vinyl}-2-methyl-2H-pyrazol-3-yl)-methanone]",7.53
